Test results as given in ChEMBL document CHEMBL1201862, “PubChem BioAssay data set” (2004).
Activity calls are given as the source filed them.

Assays:
[1] = Luminescence Cell-Based Dose Response to Identify Activators of 5'UTR Stem-Loop Driven Prion Protein mRNA Translation in H4-C Neuroglioblastoma Cells. [Related pubchem assays: 1829 (Project Summary), 1814 (Primary HTS)]; type: functional
[2] = Luminescence Cell-Based Dose Response HTS to Identify Activators of Luciferase Translation or Activity in H4 […] Cells. [Related pubchem assays: 1829 (Project Summary), 1814 (Primary HTS)]; type: functional
H4 = assay: Luminescence Cell-Based Dose Response HTS to Identify Activators of 5'UTR Stem-Loop Driven Prion Protein mRNA Translation in H4 Neuroglioblastoma Cells. [Related pubchem assays: 1829 (Project Summary), 1814 (Primary HTS)]; type: functional; conditions: Homo sapiens
[3] = Luminescence Cell-Based Dose Response to Identify Activators of Luciferase Translation or Activity in H4-C Neuroglioblastoma Cells. [Related pubchem assays: 1829 (Project Summary), 1814 (Primary HTS)]; type: functional
[4] = Luminescence Cell-Based Dose Confirmation to Identify Activators of 5'UTR Stem-Loop Driven Alpha-Synuclein mRNA Translation in H4 Neuroglioblastoma Cells. [Related pubchem assays: 1829 (Project Summary), 1814 (Primary HTS)]; type: functional
[5] = THP-1 cell cytotoxicity, dose response, cytotoxicity control for Vif-APOBEC3G degradation inhibitor project, THP-1 cells (AID 1117359); type: functional; conditions: Human immunodeficiency virus 1, THP-1
[6] = enhancers of respiration in Yfh1-depleted yeast, dose response, Friedreich's ataxia, plus single-dose screen (AID 1465); type: functional;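 also: yeast depleted of Yfh1p frataxin homolog grown on glycerol needing respiration; WST-1 tetrazolium dye reduction as measure of cellular dehydrogenase metabolic activity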
Troponin, cardiac muscle = Troponin, cardiac muscle (Homo sapiens, UniProt P19429+P45379+P63316); assay: Fluorescence-based biochemical high throughput dose response assay for activators of the calcium sensitivity of cardiac Regulated Thin Filaments (RTF). [Related pubchem assays (depositor defined):AID493008, AID493018, AID504382, AID504383]; type: protein-complex assay
[7] = biological target: NAD-dependent protein deacylase sirtuin-5, mitochondrial (Homo sapiens, UniProt Q9NXA8); assay: SIRT5 desuccinylase inhibitors, dose response, biochemical, fluorescence imaging, cherry-pick, set 5 (AID 720591);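 also: desuccinylation of succinyl peptide AMC substrate read as fluorescence after trypsin release; potency of inhibitors that lower fluorescence and may act on trypsin instead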
[8] = Artemis endonuclease inhibitor potency, dose response, biochemical, fluorescence intensity (AID 720701); type: functional;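 also: Artemis endonuclease enzyme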
Caspase-3 = biological target: T1, Caspase-3 (Homo sapiens, UniProt P42574); type: functional;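 also: Dose-response selectivity test against caspase-3 for candidate inhibitors of sentrin-specific proteases (SENPs)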
T1 sequence (P42574 whole entry): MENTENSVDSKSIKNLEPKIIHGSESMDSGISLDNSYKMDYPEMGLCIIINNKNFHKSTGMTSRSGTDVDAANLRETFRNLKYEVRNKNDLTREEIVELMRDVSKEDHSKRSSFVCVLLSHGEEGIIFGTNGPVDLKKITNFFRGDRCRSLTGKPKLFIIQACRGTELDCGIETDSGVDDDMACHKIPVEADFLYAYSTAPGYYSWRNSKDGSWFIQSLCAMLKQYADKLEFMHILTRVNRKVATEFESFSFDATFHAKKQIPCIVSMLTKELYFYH

[9] = biological target: T2, Sentrin-specific protease 7 (Homo sapiens, UniProt Q9BQF6); type: functional;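 also: Luminescence-based dose-response confirmation of ultra-high-throughput screening hits, measuring inhibition of SENP7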
T2 sequence (Q9BQF6 whole entry): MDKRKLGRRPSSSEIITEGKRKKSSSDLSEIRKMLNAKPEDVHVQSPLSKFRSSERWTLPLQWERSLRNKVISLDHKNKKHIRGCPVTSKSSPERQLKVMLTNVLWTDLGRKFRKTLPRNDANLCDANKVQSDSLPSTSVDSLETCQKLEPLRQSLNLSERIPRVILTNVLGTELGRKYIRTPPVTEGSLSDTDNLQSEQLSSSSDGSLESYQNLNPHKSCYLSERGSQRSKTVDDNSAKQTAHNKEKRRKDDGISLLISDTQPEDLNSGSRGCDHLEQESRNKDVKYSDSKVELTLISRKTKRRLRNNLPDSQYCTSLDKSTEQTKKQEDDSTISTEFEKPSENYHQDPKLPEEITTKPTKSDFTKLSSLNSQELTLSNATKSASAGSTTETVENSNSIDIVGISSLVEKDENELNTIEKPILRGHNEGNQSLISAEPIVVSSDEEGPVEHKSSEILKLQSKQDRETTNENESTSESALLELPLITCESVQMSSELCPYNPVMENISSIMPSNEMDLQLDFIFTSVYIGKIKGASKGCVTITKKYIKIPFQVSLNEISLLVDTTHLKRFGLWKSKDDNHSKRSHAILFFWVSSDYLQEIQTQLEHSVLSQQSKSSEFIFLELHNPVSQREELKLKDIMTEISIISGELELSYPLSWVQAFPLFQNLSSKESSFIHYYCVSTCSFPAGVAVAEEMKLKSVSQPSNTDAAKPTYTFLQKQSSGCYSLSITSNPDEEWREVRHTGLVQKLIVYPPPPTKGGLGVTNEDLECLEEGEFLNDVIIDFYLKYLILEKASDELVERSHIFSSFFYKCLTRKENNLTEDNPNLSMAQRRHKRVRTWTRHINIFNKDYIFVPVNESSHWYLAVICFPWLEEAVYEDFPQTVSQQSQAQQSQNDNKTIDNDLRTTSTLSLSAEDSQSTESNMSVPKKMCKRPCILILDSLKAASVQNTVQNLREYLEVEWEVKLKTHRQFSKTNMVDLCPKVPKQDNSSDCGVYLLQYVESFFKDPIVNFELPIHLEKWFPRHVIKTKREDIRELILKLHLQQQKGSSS

[10] = biological target: T3, Sentrin-specific protease 6 (Homo sapiens, UniProt Q9GZR1); type: functional;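 also: Luminescence-based dose-response confirmatory assay of SENP6 inhibition, following up an ultra-high-throughput screen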
T3 sequence (Q9GZR1 whole entry): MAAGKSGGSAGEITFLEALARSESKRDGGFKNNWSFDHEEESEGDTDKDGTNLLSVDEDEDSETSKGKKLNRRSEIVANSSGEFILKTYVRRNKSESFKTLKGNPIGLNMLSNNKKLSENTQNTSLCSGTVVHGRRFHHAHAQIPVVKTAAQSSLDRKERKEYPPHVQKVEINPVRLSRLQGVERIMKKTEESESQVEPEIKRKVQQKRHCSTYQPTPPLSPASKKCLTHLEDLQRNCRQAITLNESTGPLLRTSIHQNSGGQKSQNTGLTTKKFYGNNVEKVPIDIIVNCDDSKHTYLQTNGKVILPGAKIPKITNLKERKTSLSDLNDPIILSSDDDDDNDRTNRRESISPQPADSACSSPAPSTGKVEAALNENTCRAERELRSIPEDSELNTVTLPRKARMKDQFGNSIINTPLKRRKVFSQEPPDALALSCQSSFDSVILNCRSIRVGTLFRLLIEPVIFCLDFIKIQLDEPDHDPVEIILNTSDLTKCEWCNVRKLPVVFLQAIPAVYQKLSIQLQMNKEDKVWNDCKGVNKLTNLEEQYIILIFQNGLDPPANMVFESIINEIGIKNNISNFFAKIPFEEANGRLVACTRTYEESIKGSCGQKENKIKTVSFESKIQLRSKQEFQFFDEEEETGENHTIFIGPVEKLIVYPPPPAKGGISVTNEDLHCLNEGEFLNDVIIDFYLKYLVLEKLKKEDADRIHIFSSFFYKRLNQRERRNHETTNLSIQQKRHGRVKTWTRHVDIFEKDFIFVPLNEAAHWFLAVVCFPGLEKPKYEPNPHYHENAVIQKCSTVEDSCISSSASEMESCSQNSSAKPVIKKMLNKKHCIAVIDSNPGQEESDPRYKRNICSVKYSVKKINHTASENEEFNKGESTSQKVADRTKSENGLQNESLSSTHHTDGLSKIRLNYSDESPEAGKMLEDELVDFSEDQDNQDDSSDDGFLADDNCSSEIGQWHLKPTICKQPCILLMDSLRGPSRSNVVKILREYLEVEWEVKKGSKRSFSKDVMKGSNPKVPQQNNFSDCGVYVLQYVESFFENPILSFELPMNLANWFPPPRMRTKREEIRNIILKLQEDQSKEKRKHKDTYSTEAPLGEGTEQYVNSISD

[11] = biological target: T4, Sentrin-specific protease 8 (Homo sapiens, UniProt Q96LD8); type: functional;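 also: luminescence read-out of SENP8 inhibition, dose-response confirmation following an ultra-high-throughput screen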
T4 sequence (Q96LD8 whole entry): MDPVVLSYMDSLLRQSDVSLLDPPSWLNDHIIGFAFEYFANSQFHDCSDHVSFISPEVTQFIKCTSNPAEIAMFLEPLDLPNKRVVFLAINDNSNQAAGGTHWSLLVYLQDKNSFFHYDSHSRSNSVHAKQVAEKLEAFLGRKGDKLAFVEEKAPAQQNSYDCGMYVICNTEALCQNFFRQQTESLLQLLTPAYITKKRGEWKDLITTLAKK

[12] = biological target: T5, Oxysterols receptor LXR-beta (Homo sapiens, UniProt P55055); type: functional, cell-based;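 also: Cell-based luminescence dose-response assay of agonist activity at LXR, run as a confirmatory counterscreen to a daf-12 agonist screen; HEK293 cells with Gal4-LXR fusion and GAL4-driven luciferase reporter; agonist potency from rising luciferase signal of a Gal4-LXR reporter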
T5 sequence (P55055 whole entry): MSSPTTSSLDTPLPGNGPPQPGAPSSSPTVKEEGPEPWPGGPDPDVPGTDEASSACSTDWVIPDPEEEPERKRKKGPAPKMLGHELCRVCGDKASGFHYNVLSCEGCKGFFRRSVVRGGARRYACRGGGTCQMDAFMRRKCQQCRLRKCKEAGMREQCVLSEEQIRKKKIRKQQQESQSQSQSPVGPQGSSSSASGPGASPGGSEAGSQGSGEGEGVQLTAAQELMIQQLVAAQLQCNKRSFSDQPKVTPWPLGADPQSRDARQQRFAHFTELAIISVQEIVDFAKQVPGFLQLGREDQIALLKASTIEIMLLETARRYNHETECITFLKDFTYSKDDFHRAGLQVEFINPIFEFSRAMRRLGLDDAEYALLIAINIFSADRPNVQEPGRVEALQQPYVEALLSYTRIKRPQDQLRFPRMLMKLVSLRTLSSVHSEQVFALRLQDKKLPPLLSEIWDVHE

Sequence of NAD-dependent protein deacylase sirtuin-5, mitochondrial (Q9NXA8 whole entry): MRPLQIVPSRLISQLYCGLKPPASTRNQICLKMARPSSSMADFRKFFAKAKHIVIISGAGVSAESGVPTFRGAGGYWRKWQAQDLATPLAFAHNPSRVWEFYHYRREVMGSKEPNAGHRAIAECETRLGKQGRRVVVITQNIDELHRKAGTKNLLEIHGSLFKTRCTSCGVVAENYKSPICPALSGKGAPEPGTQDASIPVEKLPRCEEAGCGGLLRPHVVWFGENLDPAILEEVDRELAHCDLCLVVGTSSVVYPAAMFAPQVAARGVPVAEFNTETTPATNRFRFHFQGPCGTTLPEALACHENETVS

For `Cc1ccc(-n2c(C)cc(/C=C3\SC(=O)NC3=O)c2C)cc1`, the EC50 [1] was 0.512 µM (active), the EC50 [2] was < 0.1 µM (inconclusive) and the EC50 (H4) was 0.749 µM (active). For the same molecule, the EC50 [3] was 0.401 µM (active) and the EC50 [4] was 0.344 µM (active).
For `COc1ccc(-c2[nH]c3ccccc3c2SCCN)cc1`, the CC50 [5] was 28.3 µM (active).
In the case of `CCCN1C=CC(=CC=C(C#N)C#N)C=C1`, the EC50 [6] is reported as > 100 µM (active) and the EC50 (Troponin, cardiac muscle) is reported as 7.62 µM (active).
With `O=C(COc1ccc2c(c1)OCO2)Nc1ccc(Cl)cn1` the AC50 [7] was > 30 µM (inactive).
In the case of `N#C/C(=C\c1ccc(N2CCOCC2)o1)C(=O)NCCc1ccccc1`, the EC50 [6] is reported as > 100 µM (active).
In the case of `COc1ccc(C2CC(c3ccc(Cl)cc3)Nc3nc(NC(=O)c4ccco4)nn32)cc1` (stereo not drawn), the IC50 [8] is reported as 11.8 µM (active).
In the case of `Nc1nc(-c2ccccc2)nc2sc3c(c12)CCCC3`, the IC50 (Caspase-3) is reported as 19 µM (active), the IC50 [9] is reported as 3.08 µM (active) and the IC50 [10] is reported as 10 µM (active). For the same molecule, the IC50 [11] was 5.99 µM (active), the EC50 [12] was > 67.5 µM (inactive) and the EC50 (cells) was > 67.5 µM (inactive).
For `CC(C)N(C(=O)[C@H]1C[C@H](CC(=O)NCc2cccc(C(F)(F)F)c2)C(=O)N2CCc3c([nH]c4cc(CCC(=O)N(C)C)ccc34)[C@]12C)C(C)C`, the AC50 [7] was > 30 µM (inactive).
